Biological target: T1, Indoleamine 2,3-dioxygenase 1 (IDO1) (Homo sapiens, UniProt P14902)
T1 construct: recombinant human IDO1, N-His-tag, expressed in E. coli
Assay: methylene blue/ascorbate assay of purified recombinant IDO1, HPLC; Lineweaver-Burk kinetics
Assay type: biochemical

T1 sequence (P14902 whole entry): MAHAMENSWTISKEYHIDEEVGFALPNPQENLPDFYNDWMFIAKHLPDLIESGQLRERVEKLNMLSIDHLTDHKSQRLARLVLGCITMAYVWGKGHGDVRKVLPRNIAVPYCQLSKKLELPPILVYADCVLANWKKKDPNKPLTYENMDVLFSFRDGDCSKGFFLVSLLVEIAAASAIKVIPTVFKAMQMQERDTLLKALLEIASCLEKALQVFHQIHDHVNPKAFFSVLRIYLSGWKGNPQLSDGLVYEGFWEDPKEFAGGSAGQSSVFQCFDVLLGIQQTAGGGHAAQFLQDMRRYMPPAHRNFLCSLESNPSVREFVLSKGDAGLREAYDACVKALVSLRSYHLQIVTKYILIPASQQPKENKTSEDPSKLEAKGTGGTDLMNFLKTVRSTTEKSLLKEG

In the case of galanal, the IC50 is reported as 7.7 µM.

Reference: article PMC3923053, “Effects of Various Phytochemicals on Indoleamine 2,3-Dioxygenase 1 Activity: Galanal Is a Novel, Competitive Inhibitor of the Enzyme” (PLoS ONE, 2014)
